Assay results reported in patent publication US11414378B2, “Anti-fungals compounds targeting the synthesis of fungal sphingolipids” (THE RESEARCH FOUNDATION FOR THE STATE UNIVERSITY OF NEW YORK, priority 2017, dated 2022).
Values after ≈ are worked out from the molar mass of the structure shown.

How the values were obtained:
[1] = test system: C. neoformans; test: In vitro susceptibility testing (MIC / IC80); type: cell-based, Cryptococcus neoformans; settings: for IC80: Cryptococcus neoformans, Tables 1-3; for MIC: Example 2 table
Description: Minimal inhibitory concentration (MIC) was determined following the methods of the Clinical Laboratory Standards Institutes (CLSI) with modifications. MIC studies used either RPMI or YNB medium (pH 7.0, 0.2% glucose) buffered with HEPES. […] The compound was serially diluted from 32 to 0.03 μg/ml or 19 to 0.02 μg/ml respectively in a 96 well plate with the respective medium. The yeast inoculum was prepared as described in the CLSI protocol M27-A3 guidelines. Plates were incubated at 37° C. and in the presence of 5% CO2 for 24-96 hours. Against all fungal isolates used in the initial susceptibility screen, the MICs were determined as the lowest concentration of the drug that inhibited 50% of growth compared to the control. MIC80 and MIC100, whose drug concentrations inhibited 80% and 100% growth compared to the control respectively, were also determined. For antibacterial activity, E. coli DH5a and P. aeruginosa PA14 were grown overnight in Luria Bertani (LB) broth at 30° C. The cells were washed with PBS and counted. Then, 300 μL from 2×10^8 cells/mL was spreaded onto LB agar plate using a hockey stick glass spreader. The plate was dried, and wells were punched out using a cut tip. Fifty microliters of different drug concentration was added to the well. The plate was then incubated at 30° C. for 24 hours.

[2] = test system: A549; test: A549 toxicity; type: cell-based
[3] = test system: HepG2; test: HepG2 toxicity; type: cell-based; settings: Tables 1-3
[4] = test system: C. neoformans; test: In vitro killing assay (killing curve, Kapp, 48H killing); type: cell-based, Cryptococcus neoformans; settings: for Kapp*: Kapp = K0 − Ki (C − Ci), killing curve versus MIC; for Kill characteristics: FIG. 1A / FIG. 1B
Description: From an overnight culture, C. neoformans cells were washed in PBS, resuspended in YNB buffered with HEPES at pH 7.4. Cells were counted and 2×10^4 cells were incubated with either 1, 2 or 4 μg/ml of compound in a final volume of 10 ml. Tubes were then incubated at 37° C. in the presence of 5% CO2 on a rotary shaker at 200 rpm. At the illustrated time points, aliquots were taken and diluted and 100 μL was plated onto yeast peptone dextrose (YPD) plates. YPD plates were incubated in a 30° C. incubator and, after 72 hours, colony forming units (CFU) were counted and recorded.

[5] = test system: C. neoformans; test: In vitro susceptibility (MIC80) assay; type: cell-based; settings: Cryptococcus neoformans; lowest concentration that inhibited 80% of growth; YNB pH 7.0, HEPES, 37° C., 5% CO2
Description: MICs was determined following the methods of the Clinical and Laboratory Standards Institutes (CLSI) with modifications. Yeast Nitrogen Base (YNB) medium (pH 7.0, 0.2% glucose) buffered with HEPES was used for MIC studies. […] The compound was serially diluted from 16 to 0.03 μg/ml, in a 96-well plate. The inoculum was prepared as described in the CLSI protocol M27A3 guidelines. The plates were incubated at 37° C. with 5% CO2 for 24 to 72 h and the optical density was measure at 450 nm. The MICs was determined as the lowest concentration of the compound that inhibited 80% of growth compared to the control.

[6] = test system: C. neoformans cells; test: In vitro killing activity (K100) assay; type: cell-based, Cryptococcus neoformans; settings: minimum concentration that kills 100% of C. neoformans cells in 48 h; for MFC: Cryptococcus neoformans
Description: C. neoformans cells from a culture grown overnight were washed in PBS and resuspended in YNB buffered with HEPES at pH 7.4. The cells were counted, and 2×10^4 cells were incubated with different concentration of compounds in a final volume of 10 ml with a final concentration of 0.5% DMSO. The tubes were then incubated at 37° C. with 5% CO2 on a rotary shaker at 200 rpm. Aliquots were taken at time points and diluted, and […] were plated onto Yeast Extract-Peptone-Dextrose (YPD) plates. YPD plates were incubated in a 30° C. incubator and after 48 h, the numbers of CFU were counted and recorded.

MIC80 [5] | SMILES | IC80 [1] | A549 ([2]; Tables 1-3) | HepG2 [3] | MFC [6] | further results
0.25 µg/mL (≈ 0.584 µM) | Cc1ccc(O)c(/C=N/NC(=O)c2cc(Br)cc(Br)c2O)c1 [Compound A17, 3,5-Dibromo-2-hydroxy-N′-(5-methyl-2-hydroxyphenylmethylidene)benzohydrazide] |  |  |  | 0.25 µg/mL (≈ 0.584 µM) | 
0.12 µg/mL (≈ 0.22 µM) | O=C(N/N=C/c1cc(Br)cc(Br)c1O)c1cc(Br)c(Br)o1 [Compound H9, 4,5-Dibromo-N′-(3,5-dibromo-2-hydroxybenzylidene)furan-2-carbohydrazide] |  |  |  | > 0.5 µg/mL | 
0.25 µg/mL (≈ 0.69 µM) | CN(C)c1ccc(C(=O)N/N=C/c2ccc(Br)cc2O)cc1 [Compound A16] |  |  |  | > 1 µg/mL | 
0.25 µg/mL (≈ 0.535 µM) | O=C(N/N=C/c1cc(Br)ccc1O)c1cc(Br)c(Br)o1 [Compound H7, 4,5-Dibromo-N′-(5-bromo-2-hydroxybenzylidene) furan-2-carbohydrazide] |  |  |  | > 1 µg/mL | 
0.5 µg/mL (≈ 1.24 µM) | O=C(N/N=C/c1cc(Br)ccc1O)c1ccc(OC(F)(F)F)cc1 [Compound A7, 4-Trifluoromethoxy-N′-(5-bromo-2-hydroxybenzylidene)benzohydrazide] |  |  |  | > 4 µg/mL | 
0.12 µg/mL (≈ 0.274 µM) | O=C(N/N=C/c1c(O)ccc2ccccc12)c1cc(Br)c(Br)o1 [Compound H10, 4,5-Dibromo-N′-(2-hydroxynaphthalen-1-yl)methylenefuran-2-carbohydrazide] |  |  |  | > 0.5 µg/mL | 
0.5 µg/mL (≈ 1.48 µM) | O=C(N/N=C/c1ccc(Br)cc1O)c1cccc(F)c1 [Compound A28, 3-Fluoro-N′-(4-bromo-2-hydroxybenzylidene)benzohydrazide] |  |  |  | > 2 µg/mL | 
1 µg/mL (≈ 2.58 µM) | O=C(N/N=C/c1cccc(Br)c1O)c1cccc(C(F)(F)F)c1 [Compound A25, 3-Trifluoromethyl-N′-(3-bromo-2-hydroxybenzylidene)benzohydrazide] |  |  |  | 2 µg/mL (≈ 5.17 µM) | 
0.5 µg/mL (≈ 1.29 µM) | O=C(N/N=C/c1cc(C(F)(F)F)ccc1O)c1cccc(Br)c1 [Compound A14, 3-Bromo-N′-(2-hydroxy-5-trifluoromethylbenzylidene)benzohydrazide] |  |  |  | > 2 µg/mL | 
0.06 µg/mL (≈ 0.139 µM) | O=C(N/N=C/c1cc(Cl)ccc1O)c1ccc(Br)c(Br)c1 [Compound A31, 3,4-Dibromo-N′-(5-chloro-2-hydroxybenzylidene)benzohydrazide] |  |  |  | > 0.5 µg/mL | 
0.06 µg/mL (≈ 0.129 µM) | O=C(NN=Cc1ccc(Br)cc1O)c1cc(Br)c(Br)o1 [Compound H8, 4,5-Dibromo-N′-(4-bromo-2-hydroxybenzylidene)furan-2-carbohydrazide] |  |  |  | > 0.25 µg/mL | 
0.25 µg/mL (≈ 0.507 µM) | O=C(N/N=C/c1ccc(Br)cc1O)c1cc(Br)cc(Br)c1O [Compound A18, 3,5-Dibromo-2-hydroxy-N′-(4-bromo-2-hydroxybenzylidene)benzohydrazide] |  |  |  | 0.25 µg/mL (≈ 0.507 µM) | 
0.12 µg/mL (≈ 0.32 µM) | O=C(N/N=C/c1c(O)ccc2ccccc12)c1ccc(Br)s1 [Compound H5, 5-Bromo-N′-((2-hydroxynaphthalen-1-yl)methylene)thiophene-2-carbohydrazide] |  |  |  | > 0.5 µg/mL | 
0.25 µg/mL (≈ 0.62 µM) | O=C(N/N=C/c1cc(OC(F)(F)F)ccc1O)c1ccc(Br)cc1 [Compound A1, 4-Bromo-N′-(2-hydroxy-5-trifluoromethoxybenzylidene)benzohydrazide] |  |  |  | > 1 µg/mL | 
0.25 µg/mL (≈ 0.557 µM) | O=C(N/N=C/c1cc(Br)cc(Br)c1O)c1cnc2ccccc2c1 [Compound A10, N′-(3,5-dibromo-2-hydroxybenzylidene) quinolinylhydrazide] |  |  |  |  | K100* (μg/mL) [6]: Fungistatic
0.5 µg/mL (≈ 0.9 µM) | O=C(N/N=C/c1cc(Br)cc(Br)c1O)c1cccc(Br)c1Br [Compound A42, 2,3-Dibromo-N′-(3,5-dibromo-2-hydroxybenzylidene)benzohydrazide] |  |  |  | 0.5 µg/mL (≈ 0.9 µM) | 
1 µg/mL (≈ 2.97 µM) | O=C(N/N=C/c1cc(F)ccc1O)c1ccc(Br)cc1 [Compound A2, 4-Bromo-N′-(5-fluoro-2-hydroxybenzylidene)benzohydrazide] |  |  |  | > 4 µg/mL | 

More lines, now with the values behind:

SMILES | MIC80 [5] | IC80 [1] | A549 ([2]; Tables 1-3) | HepG2 [3] | MFC [6] | further results
O=C(N/N=C/c1cc(Cl)ccc1O)c1ccc(Br)cc1Br |  | 0.25 µg/mL (≈ 0.578 µM) | 64 µg/mL | 64 µg/mL |  | 
O=C(N/N=C/c1cc(Cl)cc(Cl)c1O)c1ccc(Br)cc1Br |  | 1 µg/mL (≈ 2.14 µM) | >64 µg/mL | 64 µg/mL |  | 
O=C(N/N=C/c1cc(Br)ccc1O)c1ccc(Br)cc1Br |  | 0.12 µg/mL (≈ 0.252 µM) | >32 µg/mL | 59 µg/mL |  | 
O=C(N/N=C/c1c(O)ccc2ccccc12)c1ccc(Br)cc1Br |  | 0.12 µg/mL (≈ 0.268 µM) | 16 µg/mL | >32 µg/mL |  | 
O=C(N/N=C/c1cc(Br)cc(Br)c1O)c1ccc(Br)cc1 [Compound 13] |  |  |  |  |  | MIC [1]: 0.06 µg/mL (≈ 0.126 µM); A549 ([2]; Example 2 table): >128; Kapp* [4]: −0.428
O=C(N/N=C/c1ccc(Br)cc1O)c1ccc(Br)cc1Br |  | 0.06 µg/mL (≈ 0.126 µM) | >32 µg/mL | >64 µg/mL |  | 
Cc1ccccc1C(=O)N/N=C/c1cc(Br)ccc1O [Compound 1] |  |  |  |  |  | MIC [1]: 1 µg/mL (≈ 3 µM); A549 ([2]; Example 2 table): 32; Kill characteristics [4]: killed C. neoformans in a concentration dependent manner; Kapp* [4]: 0.024
O=C(N/N=C/c1cc(Br)cc(Br)c1O)c1cnc2ccccc2c1 [drawing 62] |  | 0.25 µg/mL (≈ 0.557 µM) | 32 µg/mL | 32 µg/mL |  | Killing assay 48H (μg/mL) [4]: Fungistatic
O=C(N/N=C/c1cc(Cl)ccc1O)c1cc(Br)ccc1Br |  | 0.25 µg/mL (≈ 0.578 µM) | 59 µg/mL | 32 µg/mL |  | 
Cc1ccc(O)c(/C=N/NC(=O)c2cc(Br)cc(Br)c2O)c1 [drawing 66] |  | 0.25 µg/mL (≈ 0.584 µM) | 4 µg/mL | 8 µg/mL |  | 
Cc1ccc(O)c(/C=N/NC(=O)c2ccc(Br)cc2Br)c1 |  | 1 µg/mL (≈ 2.43 µM) | 32 µg/mL | 16 µg/mL |  | 
O=C(N/N=C/c1c(O)ccc2ccccc12)c1cc(Br)ccc1Br |  | 0.25 µg/mL (≈ 0.558 µM) | 32 µg/mL | 16 µg/mL |  | 
O=C(N/N=C/c1cc(Cl)ccc1O)c1cccc(F)c1F |  | 1 µg/mL (≈ 3.22 µM) | 72 µg/mL | 32 µg/mL |  | 
O=C(N/N=C/c1cc(Br)ccc1O)c1cccc(Br)c1 [Compound 2] |  |  |  |  |  | MIC [1]: 0.25 µg/mL (≈ 0.628 µM); A549 ([2]; Example 2 table): 64; Kill characteristics [4]: killed C. neoformans in a time dependent manner; Kapp* [4]: −0.142
O=C(N/N=C/c1cc(Cl)cc(Cl)c1O)c1cc(Br)ccc1Br |  | 0.5 µg/mL (≈ 1.07 µM) | 32 µg/mL | 32 µg/mL |  | 
O=C(N/N=C/c1ccc(Br)cc1O)c1ccc(Br)cc1 |  | 0.06 µg/mL (≈ 0.151 µM) | 16 µg/mL | 32 µg/mL |  | Killing assay 48H (μg/mL) [4]: Fungistatic
Cc1ccc(O)c(/C=N/NC(=O)c2cc(Br)ccc2O)c1 |  | 0.25 µg/mL (≈ 0.716 µM) | 16 µg/mL | 16 µg/mL |  | 
O=C(N/N=C/c1ccc(Br)cc1O)c1cccc(F)c1F |  | 0.5 µg/mL (≈ 1.41 µM) | 16 µg/mL | 16 µg/mL |  | 
O=C(N/N=C/c1ccc(Br)cc1O)c1cccc(Br)c1 |  | 0.5 µg/mL (≈ 1.26 µM) | >32 µg/mL | 9 µg/mL |  | 
Cc1ccc(O)c(/C=N/NC(=O)c2cc(Br)ccc2Br)c1 |  | 1 µg/mL (≈ 2.43 µM) | 32 µg/mL | 32 µg/mL |  | 
O=C(N/N=C/c1ccc(Br)cc1O)c1cc(Br)ccc1Br |  | 0.12 µg/mL (≈ 0.252 µM) | 32 µg/mL | 16 µg/mL |  | 
O=C(N/N=C/c1cc(Br)ccc1O)c1cc(Br)ccc1Br |  | 0.25 µg/mL (≈ 0.524 µM) | 16 µg/mL | 32 µg/mL |  | 
O=C(N/N=C/c1cc(Br)ccc1O)c1cc(Br)cc(Br)c1O [Compound 17] |  |  |  |  |  | MIC [1]: 0.5 µg/mL (≈ 1.01 µM); A549 ([2]; Example 2 table): 16; Kapp* [4]: 0.077
